test system: DLD-1 BRCA2(−/−) Cell; experiment: Cell viability assay (Resazurin) in DLD1-BRCA2 cells; format: cell-based; settings: Homo sapiens, DLD-1, 336 h, 14 days, 1,500 cells/well, final DMSO 1%
Protocol: DLD1-BRCA2 KG (Horizon Discovery, Cat #HD 105-007) cells and DLD1-parental cells were maintained in culture media (RPMI-1640 including 2 mM L-glutamin and 25 mM sodium bicarbonate, supplemented with 10% FBS), at 37° C. in a humidified atmosphere with 5% CO2. Cells were seeded at the final concentration of 1,500 cells/well (DLD1-BRCA2 KG) and 600 cells/well (DLD1-parental) in a 96-well plate. Four hours later, test compounds were added (the final concentration of DMSO was 1%) to the cells and media were replaced every 3-4 days for 14 days. To measure viability, cells were incubated in culture media supplemented with 0.1 mg/ml of Resazurin (Merck, Cat #R7017) for 4 hours. The fluorescence was measured at Ex/Em=560 nm/590 nm using EnSight multimode plate reader (Perkin Elmer). Data analysis and IC50 calculation was done using GraphPad Prism (Version 10.0.2).

SMILES	IC50 [nM]
Cc1cccc(N(CC#Cc2ccc(N)nn2)C(=O)[C@@H]2CCC(=O)N2c2cc(C(F)(F)F)cc(C)n2)c1 [Example 1, (S)—N-(3-(6-aminopyridazin-3-yl)prop-2-yn-1-yl)-1-(6-methyl-4-(trifluoromethyl)pyridin-2-yl)-5-oxo-N-(m-tolyl)pyrrolidine-2-carboxamide]	< 1000
Cc1cc(C(F)(F)F)cc(N2C(=O)CC[C@H]2C(=O)N(CC#Cc2ccc(N)nn2)c2ccc(F)c(C)c2F)n1 [Example 2, (S)-N-(3-(6-aminopyridazin-3-yl)prop-2-yn-1-yl)-N-(2,4-difluoro-3-methylphenyl)-1-(6-methyl-4-(trifluoromethyl)pyridin-2-yl)-5-oxopyrrolidine-2-carboxamide]	< 1000
Cc1cc(C(F)(F)F)cc(N2C(=O)CC[C@H]2C(=O)N(CC#Cc2ccc(N)nn2)c2ccc(F)c(Cl)c2)n1 [Example 3, (S)-N-(3-(6-aminopyridazin-3-yl)prop-2-yn-1-yl)-N-(3-chloro-4-fluorophenyl)-1-(6-methyl-4-(trifluoromethyl)pyridin-2-yl)-5-oxopyrrolidine-2-carboxamide]	< 1000
Cc1cc(C(F)(F)F)cc(N2C(=O)CC[C@H]2C(=O)N(CC#Cc2ccc(N)nn2)c2ccc(F)c(Cl)c2F)n1 [Example 4, (S)-N-(3-(6-aminopyridazin-3-yl)prop-2-yn-1-yl)-N-(3-chloro-2,4-difluorophenyl)-1-(6-methyl-4-(trifluoromethyl)pyridin-2-yl)-5-oxopyrrolidine-2-carboxamide]	< 1000
Cc1cc(C(F)(F)F)cc(N2C(=O)CC[C@H]2C(=O)N(CC#Cc2ccc(N)nn2)c2ccc(F)c(C)c2)n1 [Example 5, (2S)-N-(3-(6-aminopyridazin-3-yl)prop-2-ynyl]-N-(4-fluoro-3-methyl-phenyl)-1-[6-methyl-4-(trifluoromethyl)-2-pyridyl]-5-oxo-pyrrolidine-2-carboxamide]	< 1000
Cc1cc(C(F)(F)F)cc(N2C(=O)CC[C@H]2C(=O)N(CC#Cc2cnc(N)cn2)c2ccc(F)c(C)c2)n1 [Example 6, (2S)-N-[3-(5-aminopyrazin-2-yl)prop-2-ynyl]-N-(4-fluoro-3-methyl-phenyl)-1-[6-methyl-4-(trifluoromethyl)-2-pyridyl]-5-oxo-pyrrolidine-2-carboxamide]	< 1000
Cc1cc(C(F)(F)F)cc(N2C(=O)CC[C@H]2C(=O)N(CC#Cc2cccc(=O)[nH]2)c2ccc(F)c(C)c2)n1 [Example 7, (2S)-N-(4-fluoro-3-methyl-phenyl)-1-[6-methyl-4-(trifluoromethyl)-2-pyridyl]-5-oxo-N-[3-(6-oxo-1H-pyridin-2-yl)prop-2-ynyl]pyrrolidine-2-carboxamide]	< 1000
Cc1cc(C(F)(F)F)cc(N2C(=O)CC[C@H]2C(=O)N(CC#Cc2ccc(F)cn2)c2ccc(F)c(C)c2)n1 [Example 8, (S)-N-(4-fluoro-3-methylphenyl)-N-(3-(5-fluoropyridin-2-yl)prop-2-yn-1-yl)-1-(6-methyl-4-(trifluoromethyl)pyridin-2-yl)-5-oxopyrrolidine-2-carboxamide]	< 1000
Cc1cc(C(F)(F)F)cc(N2C(=O)CC[C@H]2C(=O)N(CC#Cc2cncn2C)c2ccc(F)c(C)c2)n1 [Example 9, (S)-N-(4-fluoro-3-methylphenyl)-N-(3-(1-methyl-1H-imidazol-5-yl)prop-2-yn-1-yl)-1-(6-methyl-4-(trifluoromethyl)pyridin-2-yl)-5-oxopyrrolidine-2-carboxamide]	< 1000
Cc1cc(C(F)(F)F)cc(N2C(=O)CC[C@H]2C(=O)N(CC#Cc2cnc(N3CCOCC3)cn2)c2ccc(F)c(C)c2)n1 [Example 10, (S)-N-(4-fluoro-3-methylphenyl)-1-(6-methyl-4-(trifluoromethyl)pyridin-2-yl)-N-(3-(5-morpholinopyrazin-2-yl)prop-2-yn-1-yl)-5-oxopyrrolidine-2-carboxamide]	< 1000
CCN1CCN(c2cnc(C#CCN(C(=O)[C@@H]3CCC(=O)N3c3cc(C(F)(F)F)cc(C)n3)c3ccc(F)c(C)c3)cn2)CC1 [Example 11, (S)-N-(3-(5-(4-ethylpiperazin-1-yl)pyrazin-2-yl)prop-2-yn-1-yl)-N-(4-fluoro-3-methylphenyl)-1-(6-methyl-4-(trifluoromethyl)pyridin-2-yl)-5-oxopyrrolidine-2-carboxamide]	< 1000
Cc1cc(C(F)(F)F)cc(N2C(=O)CC[C@H]2C(=O)N(CC#Cc2ccc(C(N)=O)nc2)c2ccc(F)c(C)c2)n1 [Example 12, (S)-5-(3-(N-(4-fluoro-3-methyl-phenyl)-1-(6-methyl-4-(trifluoro-methyl)pyridin-2-yl)-5-oxo-pyrrolidine-2-carboxamido)prop-1-yn-1-yl)picolinamide]	< 1000
CCN1CCN(CC#CCN(C(=O)[C@@H]2CCC(=O)N2c2cc(C(F)(F)F)cc(C)n2)c2ccc(F)c(C)c2F)CC1 [Example 13, (S)—N-(2,4-difluoro-3-methylphenyl)-N-(4-(4-ethylpiperazin-1-yl)but-2-yn-1-yl)-1-(6-methyl-4-(trifluoromethyl)pyridin-2-yl)-5-oxopyrrolidine-2-carboxamide]	1100 to 5000
Cc1cc(C(F)(F)F)cc(N2C(=O)CC[C@H]2C(=O)N(CC#CCN2CCOCC2)c2ccc(F)c(C)c2F)n1 [Example 14, (S)—N-(2,4-difluoro-3-methylphenyl)-1-(6-methyl-4-(trifluoromethyl)pyridin-2-yl)-N-(4-morpholinobut-2-yn-1-yl)-5-oxopyrrolidine-2-carboxamide]	1100 to 5000
Cc1cc(C(F)(F)F)cc(N2C(=O)CC[C@H]2C(=O)N(CC#CCN2CCN(c3cnccn3)CC2)c2ccc(F)c(C)c2F)n1 [Example 15, (S)—N-(2,4-difluoro-3-methylphenyl)-1-(6-methyl-4-(trifluoromethyl)pyridin-2-yl)-5-oxo-N-(4-(4-(pyrazin-2-yl)piperazin-1-yl)but-2-yn-1-yl)pyrrolidine-2-carboxamide]	1100 to 5000
Cc1cc(C(F)(F)F)cc(N2C(=O)CC[C@H]2C(=O)N(CC#CCN2CCN(c3ncccn3)CC2)c2ccc(F)c(C)c2F)n1 [Example 16, (S)—N-(2,4-difluoro-3-methylphenyl)-1-(6-methyl-4-(trifluoromethyl)pyridin-2-yl)-5-oxo-N-(4-(4-(pyrimidin-2-yl)piperazin-1-yl)but-2-yn-1-yl)pyrrolidine-2-carboxamide]	1100 to 5000
Cc1cc(C(F)(F)F)cc(N2[C@H](C(=O)N(CC#Cc3cnc(N)cn3)c3ccc(F)c(C)c3F)CCS2(=O)=O)n1 [Example 17, (S)—N-(3-(5-aminopyrazin-2-yl)prop-2-yn-1-yl)-N-(2,4-difluoro-3-methylphenyl)-2-(6-methyl-4-(trifluoromethyl)pyridin-2-yl)isothiazolidine-3-carboxamide 1,1-dioxide]	< 1000
Cc1cc(C(F)(F)F)cc(N2[C@H](C(=O)N(CC#Cc3ccc(N)nn3)c3ccc(F)c(C)c3)CCS2(=O)=O)n1 [Example 18, (S)-N-(3-(6-aminopyridazin-3-yl)prop-2-yn-1-yl)-N-(4-fluoro-3-methylphenyl)-2-(6-methyl-4-(trifluoromethyl)pyridin-2-yl)isothiazolidine-3-carboxamide 1,1-dioxide]	< 1000
Cc1cc(C(F)(F)F)cc(N2[C@H](C(=O)N(CC#Cc3ccc(NC(C)C)nn3)c3ccc(F)c(C)c3)CCS2(=O)=O)n1 [Example 20]	< 1000
Cc1cc(C(F)(F)F)cc(N2[C@H](C(=O)N(CC#Cc3ccc(NC(C)C)nn3)c3ccc(F)c(C)c3F)CCS2(=O)=O)n1 [Example 21, (S)-N-(2,4-difluoro-3-methylphenyl)-N-(3-(6-(isopropylamino)pyridazin-3-yl)prop-2-yn-1-yl)-2-(6-methyl-4-(trifluoromethyl)pyridin-2-carboxamide 1,1-dioxideyl)isothiazolidine-3-carboxamide 1,1-dioxide]	< 1000
CC(=O)Nc1ccc(C#CCN(C(=O)[C@@H]2CCS(=O)(=O)N2c2cc(C(F)(F)F)cc(C)n2)c2ccc(F)c(C)c2)nn1 [Example 22, (S)-N-(3-(6-acetamidopyridazin-3-yl)prop-2-yn-1-yl)-N-(4-fluoro-3-methylphenyl)-2-(6-methyl-4-(trifluoromethyl)pyridin-2-yl)isothiazolidine-3-carboxamide 1,1-dioxide]	1100 to 5000
Cc1cc(C(F)(F)F)cc(N2[C@H](C(=O)N(CC#Cc3ccc(N4CCOCC4)nn3)c3ccc(F)c(C)c3)CCS2(=O)=O)n1 [Example 23, (S)-N-(4-fluoro-3-methylphenyl)-2-(6-methyl-4-(trifluoromethyl)pyridin-2-yl)-N-(3-(6-morpholinopyridazin-3-yl)prop-2-yn-1-yl)isothiazolidine-3-carboxamide 1,1-dioxide]	1100 to 5000
CCN1CCN(c2ccc(C#CCN(C(=O)[C@@H]3CCS(=O)(=O)N3c3cc(C(F)(F)F)cc(C)n3)c3ccc(F)c(C)c3)nn2)CC1 [Example 24, (S)-N-(3-(6-(4-ethylpiperazin-1-yl)pyridazin-3-yl)prop-2-yn-1-yl)-N-(4-fluoro-3-methylphenyl)-2-(6-methyl-4-(trifluoromethyl)pyridin-2-yl)isothiazolidine-3-carboxamide 1,1-dioxide]	< 1000
CCN(CC)c1ccc(C#CCN(C(=O)[C@@H]2CCS(=O)(=O)N2c2cc(C(F)(F)F)cc(C)n2)c2ccc(F)c(C)c2)nn1 [Example 25, (S)-N-(3-(6-(diethylamino)pyridazin-3-yl)prop-2-yn-1-yl)-N-(4-fluoro-3-methylphenyl)-2-(6-methyl-4-(trifluoromethyl)pyridin-2-yl)isothiazolidine-3-carboxamide 1,1-dioxide]	1100 to 5000

From patent US20260297083A1, “SUBSTITUTED ACETYLENE COMPOUND DERIVATIVES AND THEIR PHARMACEUTICAL USE” (AVELOS THERAPEUTICS INC., priority 2023, published 2026)
